# Laboratory results as given in ChEMBL document CHEMBL3865816, “Design, synthesis and biological evaluation of novel azaspiro analogs of linezolid as antibacterial and antitubercular agents” (Eur J Med Chem, 2016).
# Columns and labels:
# Format in all cases: functional
# [1] = system: Mycobacterium tuberculosis variant bovis; assay: Antitubercular activity against dormant stage Mycobacterium bovis BCG ATCC 35734 at 10 ug/ml measured after 12 days by nitrate reductase assay; settings: ATCC 35734, 288 h
# [2] = system: Mycobacterium tuberculosis variant bovis; assay: Antitubercular activity against dormant stage Mycobacterium bovis BCG ATCC 35734 at 3 ug/ml measured after 12 days by nitrate reductase assay; settings: ATCC 35734, 288 h
# [3] = system: Mycobacterium tuberculosis variant bovis; assay: Antitubercular activity against dormant stage Mycobacterium bovis BCG ATCC 35734 at 30 ug/ml measured after 12 days by nitrate reductase assay; settings: ATCC 35734, 288 h
# [4] = system: Mycobacterium tuberculosis variant bovis; assay: Antitubercular activity against dormant stage Mycobacterium bovis BCG ATCC 35734 measured after 12 days by nitrate reductase assay; settings: ATCC 35734, 288 h
# [5] = system: Mycobacterium tuberculosis variant bovis; assay: Antitubercular activity against active stage Mycobacterium bovis BCG ATCC 35734 measured after 8 days by nitrate reductase assay; settings: ATCC 35734, 192 h
Structure (SMILES),inhibition at 10 µg/mL [1],inhibition at 3 µg/mL [2],inhibition at 30 µg/mL [3],IC50 [4],MIC [4],IC50 [5],MIC [5]
O=C1OC2(CCNC2)CN1c1ccc(N2CCOCC2)c(F)c1 (centres undefined),-16.8%,-3.11%,-7.3%,> 100 µg/mL,> 100 µg/mL,–,–
OC1(CNc2ccc(N3CCOCC3)c(F)c2)CCN(Cc2ccccc2)C1 (centres undefined),-6.66%,-6.7%,-1.83%,> 100 µg/mL,> 100 µg/mL,–,–
O=C1O[C@@H](CNC(=O)C23CC4CC(CC(C4)C2)C3)CN1c1ccc(N2CC3(COC3)C2)c(F)c1,44.1%,11.8%,62.6%,> 100 µg/mL,> 100 µg/mL,–,–
O=C1O[C@@H](CNC(=S)Nc2cccc(C(F)(F)F)c2)CN1c1ccc(N2CC3(COC3)C2)c(F)c1,83.9%,29.6%,94.8%,> 100 µg/mL,> 100 µg/mL,–,–
O=C1O[C@@H](CNS(=O)(=O)c2ccc(Cl)s2)CN1c1ccc(N2CC3(COC3)C2)c(F)c1,83.5%,34.8%,91.7%,> 100 µg/mL,> 100 µg/mL,–,–
O=C1O[C@@H](CNC(=S)Nc2ccc([N+](=O)[O-])cc2)CN1c1ccc(N2CC3(COC3)C2)c(F)c1,-15.8%,39.9%,-6.89%,> 100 µg/mL,> 100 µg/mL,–,–
COCC(=O)NC[C@H]1CN(c2ccc(N3CC4(COC4)C3)c(F)c2)C(=O)O1,97.2%,74.5%,98.6%,> 100 µg/mL,> 100 µg/mL,–,–
N#Cc1ccc(NC(=S)NC[C@H]2CN(c3ccc(N4CC5(COC5)C4)c(F)c3)C(=O)O2)cc1,97.2%,97.4%,88.1%,> 100 µg/mL,> 100 µg/mL,–,–
O=C(NC[C@H]1CN(c2ccc(N3CC4(COC4)C3)c(F)c2)C(=O)O1)c1ccno1,86.1%,66.9%,89%,4.83 µg/mL,10.1 µg/mL,4.11 µg/mL,9.82 µg/mL
O=C(NC[C@H]1CN(c2ccc(N3CC4(COC4)C3)c(F)c2)C(=O)O1)Nc1ccc(Cl)cc1,-3.58%,-5.78%,28.6%,> 100 µg/mL,> 100 µg/mL,–,–
O=C(NC[C@H]1CN(c2ccc(N3CC4(COC4)C3)c(F)c2)C(=O)O1)c1ccc(C(F)(F)F)cc1,8.62%,65%,73.1%,> 100 µg/mL,> 100 µg/mL,–,–
CC(=O)NC[C@H]1CN(c2ccc(N3CC4(COC4)C3)c(F)c2)C(=O)O1,100%,99.1%,95.9%,0.81 µg/mL,1.67 µg/mL,0.79 µg/mL,1.83 µg/mL
O=C1OC2(CCN(Cc3ccccc3)C2)CN1c1ccc(N2CCOCC2)c(F)c1 (centres undefined),-9.32%,-11.8%,-11.2%,> 100 µg/mL,> 100 µg/mL,–,–
CC(C)NC(=S)NC[C@H]1CN(c2ccc(N3CC4(COC4)C3)c(F)c2)C(=O)O1,74.6%,21.9%,94.4%,> 100 µg/mL,> 100 µg/mL,–,–
CC(C)(C)NC(=S)NC[C@H]1CN(c2ccc(N3CC4(COC4)C3)c(F)c2)C(=O)O1,-3.89%,-9.84%,33.6%,> 100 µg/mL,> 100 µg/mL,–,–
CC1(C)[C@@]2(C)CC[C@]1(C(=O)NC[C@H]1CN(c3ccc(N4CC5(COC5)C4)c(F)c3)C(=O)O1)OC2=O,3.86%,-35.3%,8.27%,> 100 µg/mL,> 100 µg/mL,–,–
O=C1O[C@@H](CNS(=O)(=O)c2cc([N+](=O)[O-])ccc2Cl)CN1c1ccc(N2CC3(COC3)C2)c(F)c1,11.6%,11.1%,15%,> 100 µg/mL,> 100 µg/mL,–,–
CC(=O)OCC(=O)NC[C@H]1CN(c2ccc(N3CC4(COC4)C3)c(F)c2)C(=O)O1,99.6%,99.2%,99.4%,3.05 µg/mL,5.77 µg/mL,3.35 µg/mL,6.32 µg/mL
NC[C@H]1CN(c2ccc(N3CC4(COC4)C3)c(F)c2)C(=O)O1,52%,-0.29%,89.4%,17.3 µg/mL,24.4 µg/mL,15.7 µg/mL,29.5 µg/mL
CC(=O)N1CCC2(C1)CN(c1ccc(N3CCOCC3)c(F)c1)C(=O)O2 (centres undefined),-3.02%,-2.09%,8.79%,> 100 µg/mL,> 100 µg/mL,–,–
COc1ccc(NC(=S)NC[C@H]2CN(c3ccc(N4CC5(COC5)C4)c(F)c3)C(=O)O2)cc1,63%,18.9%,73.2%,> 100 µg/mL,> 100 µg/mL,–,–
CC(=O)NC[C@H]1CN(c2ccc(N3CCOCC3)c(F)c2)C(=O)O1 [LINEZOLID],101%,101%,101%,0.31 µg/mL,0.43 µg/mL,0.029 µg/mL,0.42 µg/mL
O=C(NC[C@H]1CN(c2ccc(N3CC4(COC4)C3)c(F)c2)C(=O)O1)c1cccnc1,101%,76.2%,102%,> 100 µg/mL,> 100 µg/mL,–,–
O=C1O[C@@H](CNS(=O)(=O)c2cccc(C(F)(F)F)c2)CN1c1ccc(N2CC3(COC3)C2)c(F)c1,-6.57%,-2.23%,-5.29%,> 100 µg/mL,> 100 µg/mL,–,–
O=C1O[C@@H](CNC(=S)Nc2ccc(Cl)cc2)CN1c1ccc(N2CC3(COC3)C2)c(F)c1,-10.1%,-1.89%,-26.1%,> 100 µg/mL,> 100 µg/mL,–,–
O=C1O[C@@H](CNS(=O)(=O)c2cc(Cl)cc(Cl)c2)CN1c1ccc(N2CC3(COC3)C2)c(F)c1,-2.28%,25.9%,3.87%,> 100 µg/mL,> 100 µg/mL,–,–
CC(=O)NC[C@H]1CN(c2ccc(C3=C[C@H]4CC[C@@H](C3)N4C(=O)OC(C)(C)C)c(F)c2)C(=O)O1,89.3%,57.9%,96.3%,5.82 µg/mL,23.1 µg/mL,4.35 µg/mL,31.2 µg/mL
O=C1O[C@@H](CNC(=S)Nc2ccccc2F)CN1c1ccc(N2CC3(COC3)C2)c(F)c1,92.9%,42.1%,94.7%,17.7 µg/mL,61.2 µg/mL,13.1 µg/mL,44.5 µg/mL
